Data published in ChEMBL document CHEMBL1139152, “Epoxygenase eicosanoids: synthesis of tetrahydrofuran-diol metabolites and their vasoactivity” (Bioorg Med Chem Lett, 2007).
Active and inactive are the calls of the source. The rule behind the calls is not given here.

Tests used:
[1] = Vasodilatory activity assessed as relaxation of U46619-induced contraction of bovine coronary arteries at 10 nM to 10 uM; format: functional, tissue-based; details: Bos taurus, Coronary artery
[2] = Vasodilatory activity assessed as relaxation of U46619-induced contraction of bovine coronary arteries; format: functional; details: Bos taurus; Coronary artery

CCCCC/C=C\C[C@@H]1O[C@H]([C@H](O)C/C=C\CCCC(=O)O)C[C@@H]1O
Activity [1]: Active

CCCCC/C=C\C[C@H]1O[C@H]([C@@H](O)C/C=C\CCCC(=O)O)C[C@@H]1O
Activity [1]: Active

CCCCC/C=C\C[C@H]1O[C@H]([C@H](O)C/C=C\CCCC(=O)O)C[C@H]1O
Activity [1]: Active
ED50 [2]: 3 µM

CCCCC/C=C\C[C@H]1O[C@H]([C@H](O)C/C=C\CCCC(=O)O)C[C@@H]1O
Activity [1]: Active

CCCCC/C=C\C[C@@H]1O[C@H]([C@H](O)C/C=C\CCCC(=O)O)C[C@H]1O
Activity [1]: Active

CCCCCC1OC1C/C=C/C/C=C/C/C=C/CCCC(=O)O (centres undefined)
Activity [1]: Active
ED50 [2]: 2.5 µM

CCCCC/C=C\C[C@H]1O[C@H]([C@@H](O)C/C=C\CCCC(=O)O)C[C@H]1O
Activity [1]: Active
